From patent US20260174677A1, “METHODS OF TREATING INSULIN RESISTANCE AND ASSOCIATED DISORDERS” (The University of Melboune, priority 2022, published 2026) come the findings set out here.

Holding throughout (format): in vivo, mouse
The nature of assay [1]: Intranasal PZ6005 in obese mice: I.P. GTT, ITT and fasting glucose. As for the experimental part:
Metabolic measurements were undertaken in the Melbourne Mouse Metabolic Phenotyping Platform (The University of Melbourne, Australia). Glucose tolerance tests were performed on 6 h fasted conscious mice respectively by injecting D-glucose (2 mg/g of lean body mass and 1 mg/g lean mass for db/db and HFHS+STZ mice) into the peritoneal cavity and measuring glucose in tail blood immediately before and at 15, 30, 45, 60, 90 and 120 min after injection using an Accu-Check glucometer (Roche, Germany). The areas under glucose excursion curves were determined and expressed as mmol/1×min. Fasted (12 h fast) plasma insulin or glucose levels were determined using a Rat/Mouse Insulin ELISA (EZRMI-13K, Merck Millipore, CA) or an Accu-Check glucometer respectively. The HOMA-IR was calculated using the equation [(glucose×insulin)/405]. Adiposity was measured using TD-NMR minispec (Bruker Optics Inc., Billerica, MA).
(§1) Conscious mice were restrained by scruffing and inverted parallel to the floor with the chin at ˜180-degree angle with the neck. Using a 10 μL tip, a pipettor was loaded with 5 μl of vehicle (ddH2O) or fluorosamine (1 mg/animal in 20 μl or 5 mg/animal in 20 μl). The tip of the filled pipettor was placed near the left nostril at a 45-degree angle, and the drug was ejected to form a small 5 μl droplet at tip for the mouse to inhale. Immediately after the mouse inhaled the first droplet the remaining solution was ejected to form another small droplet for the mouse to inhale through the same nostril. The mouse was held in this position for 15 seconds before the procedure was repeated in the right nostril. The mouse was returned to the cage for 2 minutes and the process was repeated so that each mouse received four droplets of 5 μl each, delivering a total of 20 μl of solution. All drugs were administered delivered approximately 1 h before lights off (7 μm).
Obese mice intranasally receiving either vehicle or PZ6005 (1 or 5 mg/animal/day) were subjected to I.P. GTT after 6 hrs fasting period and I.P. insulin tolerance test (ITT) after 4 hrs fasting period.

Assay [2] has as its system insulin induced p-AKT signalling in the ARC. The assay can be described thus: I.C.V. fluorosamine in obese mice: insulin-induced p-AKT in the ARC. The conditions noted are these: following 10 days of treatment. As for the experimental part: Under isoflurane anaesthetic 12-week HFHS fed C57BL/6J or AgRP-Cas9 mice were implanted stereotaxically with guide cannulas into the right lateral ventricle (0.2 mm posterior, 1.0 mm lateral from bregma). Guide cannula was positioned 1.3 mm above the injection site (1 mm ventral to the surface of the skull). AgRP-Cas9 mice were treated with either AAV-gScrambled or AAV-gIR and underwent guide cannula placement 7 days post AAV administration. Mice were administered I.C.V. vehicle (ddH2O), fluorosamine (100 μg/animal/day or 250 μgl/animal/day) in a volume of 2 μl/animal and all compounds were delivered approximately 1 h before lights off […].

In another assay the test system is ARC CSPG-ECM. Description: Intranasal PZ6005 in diet-induced obese mice: WFA immunostaining of CSPG-ECM within the ARC. The conditions noted are these: 14 days; for ARC CSPG-ECM area, lower than the controls / ARC CSPG-ECM intensity, decrease: 12-week-HFHS-diet-fed obese mice. As for the experimental part: For detection of aggrecan, GFP, HABP, parvalbumin, mCherry, versican, tenascin-C, HAPLN1, neurocan, phosphacan, brevican, WFA and WFA-FITC sections were incubated at room temperature for 1 h in blocking buffer (0.3% Triton X-100, 5% normal goat serum, Gibco, ThermoFisher, MA, 0.02% sodium azide) and then overnight at 4° C. in 1% blocking buffer containing either rabbit anti-aggrecan (1:1000, AB1031, Millipore, MA), chicken anti-GFP (1:2000; ab13970, Abcam, Cambridge, UK), Biotinylated HABP (1:100, 385911, Burlington, MA), sheep anti-parvalbumin (1:1000), in house), rabbit anti-dsRed (1:2000, 600-401-379, Rockland, PA), rabbit anti-versican (1:1000, AB1033, Millipore, MA), tenascin-C (1:500, M1-B4, Developmental Studies Hybridoma Bank, Iowa), HAPLN1 (1:500, 9/30/8-A-4, Developmental Studies Hybridoma Bank, Iowa), neurocan (1:300, 1F6-S, Developmental Studies Hybridoma Bank, Iowa), phophacan (1:300, 3F8, Developmental Studies Hybridoma Bank, Iowa), brevican (1:500, 610895, BD Transduction Laboratories), biotinylated WFA (1:2000, L1516; Sigma-Aldrich, MO), WFA-FITC (1:2000, FL-1351-2, Vector Laboratories, CA), rabbit anti PGP9.5 (1:1000, 14730-1-AP, Proteintech, IL), guinea pig anti AgRP (1:500, AS506, Antibodies Australia, Melbourne, AUS). After washing with PBS-T (0.3% Triton X-100 in PBS, +0.02% sodium azide), sections were incubated with goat anti-chicken Alexa Fluor 488 (ab150169, Abcam, Cambridge, UK), goat anti-rabbit Alexa Fluor-488, 595, 647 (ab150077, ab150080, ab150083, Abcam, Cambridge, UK), donkey anti-sheep Alexa Fluor 594 (ab150180, Abcam, Cambridge, UK), Alexa Fluor 594, 647 Streptavidin (405240, BioLegend, CA)—conjugated secondary antibodies in 5% blocking buffer for 2 h at room temperature. […] Brightness and contrast in the colour merged images have been adjusted to aid in the analysis of co-incidence.
All image quantification was performed in Image J (NIH) software (NIH, MA). Raw images underwent background subtraction using a rolling ball algorithm to minimize background and any potential variance in tissue autofluorescence. To quantify area and intensity of the CSPG-ECM within each brain region (ARC, VMH or RSG cortex) images were thresholded and binarized to create a region of interest (ROI) mask of only the CSPG-ECM. For each brain area, CSPG-ECM ROI area (μm^2) and intensity (sum of all pixel intensities within the ROI) was calculated. This process was automated to minimise bias and to account for differences in brain nuclei size across multiple images. Brain nuclei were defined in accordance with the Paxinos and Franklin mouse brain atlas (http://labs.gaidi.ca/mouse-brain-atlas/). The area and intensity of CSPG-ECM within each region was normalised to the respective control.
as §1, with “nostril.” for “nostril. The mouse was returned to the cage for 2 minutes and the process was repeated so that each mouse received four droplets of 5 μl each, delivering a total of 20 μl of solution. All drugs were administered delivered approximately 1 h before lights off (7 μm).”

Regarding `CC(=O)NC1C(OC(C)=O)OC(COC(C)=O)[C@@H](F)C1OC(C)=O` (stereo partly shown) [fluorosamine, per-O-acetylated-4-F-N-acetylglucosamine], the “glucose clearance rate vs 1 mg treatment group and controls” value in assay [1] (I.N. 5 mg, after 60 mins of I.P. glucose in GTT and after 0 mins of I.P. insulin) is recorded as “significantly higher glucose clearance rate”. Moreover, in assay [1] (I.N. 1 or 5 mg/animal/day, obese mice), the “insulin sensitivity (ITT)” value was “enhanced insulin sensitivity”. Also, the “glucose tolerance (glucose excursion in GTT and ITT)” value in assay [1] (I.N. 1 or 5 mg/animal/day, obese mice, vs control littermates) is listed as “better glucose tolerance than control littermates”. The “fasting (12 hrs) glucose level” value in assay [1] (both doses of intranasal treatment (1 or 5 mg/animal/day)) is recorded as “Reduction”. Besides, the “insulin induced p-AKT signalling in the ARC” value in assay [2] was “enhanced insulin induced p-AKT signalling in the ARC”. Moreover, the “ARC CSPG-ECM area, lower than the controls” value in the assay on ARC CSPG-ECM (I.N. 1 mg/animal/day) came to 13.54±1.03%; in the assay with ARC CSPG-ECM (I.N. 5 mg/animal/day), 13.59±4.09%. For the same compound, the results for the “ARC CSPG-ECM intensity, decrease” value with ARC CSPG-ECM (I.N. 1 mg/animal/day) and in the assay on ARC CSPG-ECM (I.N. 5 mg/animal/day (highest dose)) were 15.94±7.17% and 30.16±1.52%, respectively. The ARC neurofibrosis result in the assay on ARC CSPG-ECM (intranasal, diet-induced obese mice, dose not given) is listed as “successfully attenuated ARC neurofibrosis”.
